The values that follow come from patent US6555570B2, “Compounds with growth hormone releasing properties” (Novo Nordisk A/S, priority 1995, dated 2003).

Each structure is given as a SMILES string. Counter-ions that a name gives are not always drawn.

The term melting point denotes the temperature, or range, at which the solid turns liquid. Compound `CN(C(=O)[C@@H](Cc1ccc2ccccc2c1)N(C)C(=O)/C=C/CC(C)(C)N)[C@@H](CNC(=S)NC1CC1)Cc1ccccc1` (as salt: trifluoroacetic acid salt) gave a melting point of 138 to 145 °C.
